Measurements: patent US20100292205A1, “Pyrimidone Compounds As GSK-3 Inhibitors” (PFIZER INC., priority 2006, published 2010)
pIC50: −log10 of the molar value.

Target: T1, Recombinant human GSK3β (Homo sapiens, UniProt P49841)
T1 construct: His-tag; made in house; host or cells: Sf9 insect cells / baculovirus
Assay: GSK-3β (Glycogen Synthase Kinase) cell free enzyme assay
Format: biochemical
Conditions: 1 μM; Examples 157-199
Method in brief: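 Recombinant human GSK3β, expressed in SF9/baculovirus cells and His-tag purified on Ni-NTA Superflow, was preincubated with test agent for 30 minutes at room temperature. Substrate mix was then added to start the reaction in 8 mM MOPS (pH 7.0), 10 mM magnesium acetate, 0.2 mM EDTA, 1 mM DTT, 2 uM cold ATP, 0.025 uCi/well [33P]ATP (120 uL) and 1.0 uM biotinylated peptide. Reactions ran at RT for 60 min.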

T1 sequence (P49841 whole entry): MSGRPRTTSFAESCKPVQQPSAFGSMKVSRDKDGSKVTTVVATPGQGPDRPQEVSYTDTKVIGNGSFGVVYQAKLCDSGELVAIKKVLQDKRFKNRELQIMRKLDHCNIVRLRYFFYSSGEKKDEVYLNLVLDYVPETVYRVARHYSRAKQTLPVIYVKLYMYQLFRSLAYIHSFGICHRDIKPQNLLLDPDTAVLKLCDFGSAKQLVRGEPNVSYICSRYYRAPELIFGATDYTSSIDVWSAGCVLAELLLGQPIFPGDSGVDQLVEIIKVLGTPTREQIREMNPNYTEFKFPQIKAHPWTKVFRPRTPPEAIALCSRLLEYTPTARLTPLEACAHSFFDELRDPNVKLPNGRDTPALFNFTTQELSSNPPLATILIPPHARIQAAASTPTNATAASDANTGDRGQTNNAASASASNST

`Cn1c(N2[C@@H]3CC[C@H]2CN(S(=O)(=O)c2ccccc2)C3)nc(-c2ccncc2)cc1=O` [Example 169, 3-Methyl-2-[(1R,5S)-3-(phenylsulfonyl)-38-diazabicyclo[3.2.1]oct-8-yl]-6-pyridin-4-ylpyrimidin-4(3H)-one] was tested. Which “Percent inhibition at 1 μM” value did it give?
Its value is 92%.

Same assay, conditions: 1 μM; Examples 157-199; read-out: Percent inhibition at 1 μM

`CN(c1nc(-c2ccncc2)cc(=O)n1C)C1CCN(S(C)(=O)=O)C1` (stereo not drawn) [Example 160, 3-Methyl-2-(methyl[1-(methylsulfonyl)pyrrolidin-3-yl]amino}-6-pyridin-4-ylpyrimidin-4(3H)-one] was tested. Which inhibition at 1 µM did it give?
Its inhibition at 1 µM is 79%.

`Cn1c(N[C@@H]2CN(S(C)(=O)=O)C[C@@H]2F)nc(-c2ccncc2)cc1=O` [Example 161, 2-{[(3R,4S)-4-Fluoro-1-(methylsulfonyl)pyrrolidin-3-yl]amino}-3-methyl-6-pyridin-4-ylpyrimidin-4(3H)-one] was tested. Which inhibition at 1 µM did it give?
Its inhibition at 1 µM is 93%.

For `CCN(c1nc(-c2ccncc2)cc(=O)n1C)C1CCCN(S(=O)(=O)Cc2ccccc2)CC1` (stereo not drawn) [Example 197, 2-{[1-(Benzylsulfonyl)azepan-4-yl](ethyl)amino}-3-methyl-6-pyridin-4-ylpyrimidin-4(3H)-one], which inhibition at 1 µM is on record?
The inhibition at 1 µM was 93%.

Same assay, conditions: 1 μM; Examples 201-221

“Methyl (1R,5S)-3-(1-methyl- 6-oxo-4-pyridin-4-yl-16- dihydropyrimidin-2-yl)-38- diazabicyclo[3.2.1]octane-8- carboxylate [Example 201]” was tested. Which “Percent inhibition at 1 μM” value did it give?
Its value is 89%.

Which “Percent inhibition at 1 μM” value does the source give for “Methyl (3a,S5,S7,aR)-3a- methyl-5-[methyl(1-methyl- 6-oxo-4-pyridin-4-yl-16- dihydropyrimidin-2- yl)amino]octahydro-1H- indole-1-carboxylate [Example 212]” here?
The value was 93%.

Same assay, conditions: 1 μM; Examples 201-221; read-out: Percent inhibition at 1 μM

For `COC(=O)N1CC[C@@]2(C)C[C@H](N(C)c3nc(-c4ccncc4)cc(=O)n3C)CC[C@@H]12` [Example 216, Methyl (3a,S5,R7,aR)-3a-methyl-5-[methyl(1-methyl-6-oxo-4-pyridin-4-yl-16-dihydropyrimidin-2-yl)amino]octahydro-1H-indole-1-carboxylate], which inhibition at 1 µM is on record?
The inhibition at 1 µM was 88%.

Which inhibition at 1 µM does the source give for `COC(=O)N1CCC(Nc2nc(-c3ccncc3)cc(=O)n2C)CC1` [Example 208, Methyl 4-[(1-methyl-6-oxo-4-pyridin-4-yl-16-dihydropyrimidin-2-yl)amino]piperidine-1-carboxylate] here?
Its inhibition at 1 µM is 77%.

Same assay, conditions: 1 μM; Examples 236-262

Which “Percent inhibition at 1 μM” value does the source give for “2-[(1R,5S)-3-Benzyl- 38- diazabicyclo[3.2.1]oct- 8-yl]-3-methyl-6- pyridin-4-ylpyrimidin- 4(3H)-one [Example 250]” here?
Its value is 69%.

Same assay, conditions: 1 μM; Examples 236-262; read-out: Percent inhibition at 1 μM

With `CN1[C@@H]2CC[C@H]1CN(c1nc(-c3ccncc3)cc(=O)n1C)C2` [Example 238, 3-Methyl-2-[(1R,5S)-8-methyl-38-diazabicyclo[3.2.1]oct-3-yl]-6-pyridin-4-ylpyrimidin-4(3H)-one] as the molecule, how does the inhibition at 1 µM read?
Its inhibition at 1 µM is 47%.

`CN1CCCC(Nc2nc(-c3ccncc3)cc(=O)n2C)CC1` (stereo not drawn) [Example 241, 3-Methyl-2-[(1-methylazepan-4-yl)amino]-6-pyridin-4-ylpyrimidin-4(3H)-one] was tested. Which inhibition at 1 µM did it give?
The inhibition at 1 µM was 72%.

Same assay, conditions: 1 μM; GSK-3β cell free enzyme assay; Examples 42-60; read-out: Percent inhibition at 1 μM

With `CC(=O)N1CCC[C@@H]1CNc1nc(-c2ccncc2)cc(=O)n1C` [Example 58, 2-({[(2R)-1-Acetylpyrrolidin-2-yl]methyl}amino)-3-methyl-6-pyridin-4-ylpyrimidin-4(3H)-one] as the molecule, how does the inhibition at 1 µM read?
The inhibition at 1 µM was 64%.

Same assay, conditions: cell free enzyme assay; Examples 1-35

How did the pIC50 turn out when `COc1cccc2c1CC[C@@H](Nc1nc(-c3ccncc3)cc(=O)n1C)[C@H]2C` [Example 28, 2-{[(1S,2R)-5-Methoxy-1-methyl-1,2,3,4-tetrahydronaphthalen-2-yl]amino}-3-methyl-6-pyridin-4-ylpyrimidin-4(3H)-one] was run?
The pIC50 was 8.41.

How did the pIC50 turn out when `CN(c1nc(-c2ccncc2)cc(=O)n1C)[C@H]1CC[C@H]2NCC[C@@]2(C)C1` [Example 23, 3-methyl-2-{Methyl[(3aS,5S,7aR)-3a-methyloctahydro-1H-indol-5-yl]amino}-6-pyridin-4-ylpyrimidin-4(3H)-one] was run?
Its pIC50 is 7.33.

`Cn1c(N2CCc3ccccc3C2Cc2ccccc2)nc(-c2ccncc2)cc1=O` (stereo not drawn) [Example 22, 2-(1-Benzyl-3,4-dihydroisoquinolin-2(1H)-yl)-3-methyl-6-pyridin-4-ylpyrimidin-4(3H)-one] was tested. Which pIC50 did it give?
Its pIC50 is 7.43.

How did the pIC50 turn out when `Cn1c(N2CCN(C(=O)OC(C)(C)C)[C@@H]3CCCC[C@H]32)nc(-c2ccncc2)cc1=O` [Example 25, tert-butyl (4aR,8aR)-4-(1-Methyl-6-oxo-4-pyridin-4-yl-1,6-dihydropyrimidin-2-yl)octahydroquinox-aline-1(2H)-carboxylate] was run?
Its pIC50 is 7.40.

Same assay, conditions: cell free enzyme assay; Examples 62-155

With `CCCCC(=O)N1C[C@@H]2[C@H](C1)[C@H]2N(C)c1nc(-c2ccncc2F)cc(=O)n1C` [Example 128, 6-(3-Fluoropyridin-4-yl)-3-methyl-2-{methyl[(1R,5S,6s)-3-pentanoyl-3-azabicyclo[3.1.0]hex-6-yl]amino}pyrimidin-4(3H)-one] as the molecule, how does the pIC50 read?
Its pIC50 is 7.79.

How did the pIC50 turn out when `CN(c1nc(-c2ccncc2F)cc(=O)n1C)[C@H]1[C@@H]2CN(C(=O)c3cc(Cl)cc(Cl)c3)C[C@@H]21` [Example 116, 2-{[(1R,5S,6s)-3-(3,5-Dichlorobenzoyl)-3-azabicyclo[3.1.0]hex-6-yl](methyl)amino}-6-(3-fluoropyridin-4-yl)-3-methylpyrimidin-4(3H)-one] was run?
The pIC50 was 8.36.

With `CN(c1nc(-c2ccncc2)cc(=O)n1C)C1CCCN(C(=O)c2ccccc2)CC1` (stereo not drawn) [Example 72, 2-[(1-Benzoylazepan-4-yl)(methyl)amino]-3-methyl-6-pyridin-4-ylpyrimidin-4(3H)-one] as the molecule, how does the pIC50 read?
Its pIC50 is 7.21.

With `CCN(c1nc(-c2ccncc2)cc(=O)n1C)C1CCCN(C(=O)Cc2ccccc2)C1` (stereo not drawn) [Example 91, 2-{Ethyl[1-(phenylacetyl)piperidin-3-yl]amino}-3-methyl-6-pyridin-4-ylpyrimidin-4(3H)-one] as the molecule, how does the pIC50 read?
The pIC50 was 6.83.

`CN(c1nc(-c2ccncc2F)cc(=O)n1C)[C@H]1[C@@H]2CN(C(=O)c3c(F)cc(F)cc3F)C[C@@H]21` [Example 117, 6-(3-Fluoropyridin-4-yl)-3-methyl-2-{methyl[(1R,5S,6s)-3-(2,4,6-trifluorobenzoyl)-3-azabicyclo[3.1.0]hex-6-yl]amino}pyrimidin-4(3H)-one] was tested. Which pIC50 did it give?
Its pIC50 is 8.74.

`CN(c1nc(-c2ccncc2F)cc(=O)n1C)[C@H]1[C@@H]2CN(C(=O)c3ccc(F)c(Cl)c3)C[C@@H]21` [Example 124, 2-{[(1R,5S,6s)-3-(3-Chloro-4-fluorobenzoyl)-3-azabicyclo[3.1.0]hex-6-yl](methyl)amino}-6-(3-fluoropyridin-4-yl)-3-methylpyrimidin-4(3H)-one] was tested. Which pIC50 did it give?
The pIC50 was 8.34.

How did the pIC50 turn out when `COc1ccc(C(=O)N2C[C@@H]3[C@H](C2)[C@H]3N(C)c2nc(-c3ccncc3F)cc(=O)n2C)c(OC)c1` [Example 151, 2-{[(1R,5S,6s)-3-(2,4-Dimethoxybenzoyl)-3-azabicyclo[3.1.0]hex-6-yl](methyl)amino}-6-(3-fluoropyridin-4-yl)-3-methylpyrimidin-4(3H)-one] was run?
Its pIC50 is 8.91.

`CN(c1nc(-c2ccncc2F)cc(=O)n1C)[C@H]1[C@@H]2CN(C(=O)c3ccncc3Cl)C[C@@H]21` [Example 148, 2-{[(1R,5S,6s)-3-(3-Chloroisonicotinoyl)-3-azabicyclo[3.1.0]hex-6-yl](methyl)amino}-6-(3-fluoropyridin-4-yl)-3-methylpyrimidin-4(3H)-one] was tested. Which pIC50 did it give?
The pIC50 was 7.44.

With `CN(c1nc(-c2ccncc2F)cc(=O)n1C)[C@H]1[C@@H]2CN(C(=O)C3CCC3)C[C@@H]21` [Example 107, 2-{[(1R,5S,6s)-3-(Cyclobutylcarbonyl)-3-azabicyclo[3.1.0]hex-6-yl](methyl)amino}-6-(3-fluoropyridin-4-yl)-3-methylpyrimidin-4(3H)-one] as the molecule, how does the pIC50 read?
The pIC50 was 7.74.

`CCCC(C)C(=O)N1C[C@@H]2[C@H](C1)[C@H]2N(C)c1nc(-c2ccncc2F)cc(=O)n1C` (stereo partly drawn) [Example 100, 6-(3-Fluoropyridin-4-yl)-3-methyl-2-{methyl[(1R,5S,6s)-3-(2-methylpentanoyl)-3-azabicyclo[3.1.0]hex-6-yl]amino}pyrimidin-4(3H)-one] was tested. Which pIC50 did it give?
The pIC50 was 8.04.

How did the pIC50 turn out when `CN(c1nc(-c2ccncc2F)cc(=O)n1C)[C@H]1[C@@H]2CN(C(=O)c3c(Cl)cccc3Cl)C[C@@H]21` [Example 149, 2-{[(1R,5S,6s)-3-(2,6-Dichlorobenzoyl)-3-azabicyclo[3.1.0]hex-6-yl](methyl)amino}-6-(3-fluoropyridin-4-yl)-3-methylpyrimidin-4(3H)-one] was run?
Its pIC50 is 8.42.

`CCN(C[C@H]1CCCN1C(=O)c1ccccc1)c1nc(-c2ccncc2)cc(=O)n1C` [Example 77, 2-[{[(2R)-1-Benzoylpyrrolidin-2-yl]methyl}(ethyl)amino]-3-methyl-6-pyridin-4-ylpyrimidin-4(3H)-one] was tested. Which pIC50 did it give?
Its pIC50 is 7.53.

Same assay, conditions: cell free enzyme assay; Examples 265-291

`CN(c1nc(-c2ccncc2F)cc(=O)n1C)[C@H]1[C@@H]2CN(c3nnnn3CC3CC3)C[C@@H]21` [Example 280, 2-[{(1R,5S,6s)-3-[1-(Cyclopropylmethyl)-1H-tetrazol-5-yl]-3-azabicyclo[3.1.0]hex-6-yl}(methyl)amino]-6-(3-fluoropyridin-4-yl)-3-methylpyrimidin-4(3H)-one] was tested. Which pIC50 did it give?
Its pIC50 is 8.35.

How did the pIC50 turn out when `CC(C)Cc1nn(C)c2c(=O)[nH]c(N3C[C@@H]4[C@H](C3)[C@H]4N(C)c3nc(-c4ccncc4F)cc(=O)n3C)nc12` [Example 278, 5-[(1R,5S,6s)-6-{[4-(3-Fluoropyridin-4-yl)-1-methyl-6-oxo-1,6-dihydropyrimidin-2-yl](methyl)amino}-3-azabicyclo[3.1.0]hex-3-yl]-3-isobutyl-1-methyl-1,6-dihydro-7H-pyrazolo[4,3-d]pyrimidin-7-one] was run?
The pIC50 was 6.96.
